Test results: patent publication US20060281736A1, “Product comprising at least one phosphatase cdc25 inhibitor combined with at least one other anticancer agent” (priority 2003, published 2006)
pIC50: −log10 of the molar value.

Columns and labels:
[1] = test system: Mia-PaCa2 (human pancreas cancer cells); test: Antiproliferative activity on Mia-Paca2 cells (WST1); format: cell-based; settings: MIA PaCa-2, 96 hours treatment, read-out: IC50 on the cell proliferation of Mia-Paca2 lines
Procedure: (§1) ii) Characterization of the Antiproliferative Activity:
(§2) By way of example, the effect of a treatment on two human cell lines Mia-Paca2 and DU145 with the compounds of the examples described previously will be studied. The cell lines DU145 (human prostate cancer cells) and Mia-PaCa2 (human pancreas cancer cells) were acquired from the American Tissue Culture Collection (Rockville, Md., USA). The cells placed in 80 μl of Dulbecco's Modified Eagle's medium (Gibco-Brl, Cergy-Pontoise, France) completed with 10% foetal calf serum inactivated by heating (Gibco-Brl, Cergy-Pontoise, France), 50,000 units/l of penicillin and 50 mg/l of streptomycin (Gibco-Brl, Cergy-Pontoise, France), and 2 mM of glutamine (Gibco-Brl, Cergy-Pontoise, France) were seeded on a 96-well plate on day 0. The cells were treated on day 1 for 96 hours with increasing concentrations of each of the compounds to be tested up to 10 μM. At the end of this period, quantification of cell proliferation is evaluated by a colorimetric test based on the cleavage of the tetrazolium salt WST1 by the mitochondrial dehydrogenases in viable cells leading to the formation of formazan (Boehringer Mannheim, Meylan, France). These tests are carried out in duplicate with 8 determinations per concentration tested. For each compound to be tested, the values included in the linear part of the sigmoid were retained for a linear regression analysis and used to estimate the inhibitory concentration IC50. The products are solubilized in dimethylsulphoxide (DMSO) at 10^−2 M and finally used in culture with 0.1% DMSO.

[2] = test system: DU145 (human prostate cancer cells); test: Antiproliferative activity on DU145 cells (WST1); format: cell-based; settings: DU-145, 96 hours treatment, read-out: IC50 on the cell proliferation of DU-145 lines
Procedure: as §1
as §2, with “For each compound to be tested, the values included in the linear part of the sigmoid were retained for a linear regression analysis and used to estimate the inhibitory concentration IC50. The products are solubilized in dimethylsulphoxide (DMSO) at 10^−2 M and finally used in culture with 0.1% DMSO.” left out

[3] = test system: HT-29 cell line (human colon cancer cells); test: Test of cell proliferation of the HT-29 cells (WST1), products individually or in combination; format: cell-based; settings: 120 hours
Procedure: A) Test of Cell Proliferation of the HT-29 Cells
The protocol for the test used to obtain the results shown is described below:
The HT-29 cell line (human colon cancer cells) were acquired from the American Tissue Culture Collection (Rockville, Md., USA).
The HT-29 cells (2000 cells/well) are cultured in 96-well plates. On day 0, these cells are seeded in 90 μl of Dulbecco's modified Eagle medium (Gibco-Brl, Cergy-Pontoise, France) completed with 10% foetal calf serum inactived by heating (Gibco-Brl, Cergy-Pontoise, France), 50000 units/l of penicillin and 50 mg/l streptomycin (Gibco-Brl, Cergy-Pontoise, France), and 2 mM of glutamine (Gibco-Brl, Cergy-Pontoise, France).
The cells were treated simultaneously with concentrations of two products individually or in combination on Day 1 and for 120 hours.
At the end of the of this period (D6), quantification of cell proliferation is evaluated by a colorimetric test based on the cleavage of the tetrazolium salt WST1 by mitochondrial dehydrogenases in living cells leading to the formation of formazan (Boehringer Mannheim, Meylan, France). These tests are carried out at least in duplicate with 4 determinations for each individual product and for each combination tested. This allows determination of the number of living cells at the end of each treatment.

[4] = Stability in the form of a powder; format: physicochemical; settings: compound and its salts

CCCNC1=CC(=O)c2sc(C)nc2C1=O [Example 11, 2-methyl-5-(propylamino)-1,3-benzothiazole-4,7-dione]
pIC50 [1]: ≥ 5.00 | pIC50 [2]: ≥ 5.00

CO[C@@]12[C@H](COC(N)=O)C3=C(C(=O)C(C)=C(N)C3=O)N1C[C@@H]1N[C@@H]12 [Compound B2, mitomycin C]
% of surviving cells ([3]; Combination 2: Compound B2 (10^−7 M) individually): 49% | % of surviving cells ([3]; Combination 25: Compound B2 (5 × 10^−8 M) individually): 82% | % of surviving cells ([3]; Combination 32: Compound B2 (5 × 10^−8 M) individually): 88% | % of surviving cells ([3]; Combination 33: Compound B2 (5 × 10^−8 M) individually): 88%

CN(Cc1cnc2nc(N)nc(N)c2n1)c1ccc(C(=O)N[C@@H](CCC(=O)O)C(=O)O)cc1 [Compound B5, methotrexate]
% of surviving cells ([3]; Combination 5: Compound B5 (5 × 10^−8 M) individually): 83%

CCc1nc2c(o1)C(=O)C(C)=C(NCCN(C)C)C2=O [Example 55, 5-{[2-(dimethylamino)ethyl]amino}-2-ethyl-6-methyl-1,3-benzoxazole-4,7-dione]
pIC50 [1]: ≥ 5.00 | melting point: 135 °C

4-(2-bromophenyl)-1-(2-(1-((4-cyano-3-methoxy)phenylmethyl)imidazo-5-yl)-1-oxoethyl)-1,2-dihydro-8-fluoroimidazo[1,2a][1,4]-benzodiazepine [Compound B7]
% of surviving cells ([3]; Combination 7: Compound B7 (10^−5 M) individually): 92%

CCc1c2c(nc3ccc(O)cc13)-c1cc3c(c(=O)n1C2)COC(=O)[C@]3(O)CC [Compound B11, SN-38]
% of surviving cells ([3]; Combination 11: Compound B11 (5 × 10^−9 M) individually): 98% | % of surviving cells ([3]; Combination 24: Compound B11 (10^−8 M) individually): 73% | % of surviving cells ([3]; Combination 30: Compound B11 (10^−8 M) individually): 67%

CC[C@@]1(O)CC(=O)OCc2c1cc1n(c2=O)Cc2c-1nc1cc(Cl)c(C)cc1c2CN1CCC(C)CC1.Cl [Compound B13, (+)-9-chloro-5-ethyl-5-hydroxy-10-methyl-12-(4-methylpiperidinomethyl)-4,5,13,15-tetrahydro-1H,3H-oxepino[3′,4′:6,7]indolizino[1,2-c]quinoline-3,15-dione hydrochloride]
% of surviving cells ([3]; Combination 13: Compound B13 (10^−9 M) individually): 91%

N.N.[Cl][Pt][Cl] [Compound B4, cisplatin]
% of surviving cells ([3]; Combination 4: Compound B4 (10^−5 M) individually): 33% | % of surviving cells ([3]; Combination 28: Compound B4 (10^−5 M) individually): 75% | % of surviving cells ([3]; Combination 35: Compound B4 (10^−5 M) individually): 85%

N[C@@H](CSSC[C@H](N)C(=O)N1CCn2cc(-c3ccccc3)nc2[C@@H]1CC1CCCCC1)C(=O)N1CCn2cc(-c3ccccc3)nc2[C@@H]1CC1CCCCC1 [(1R)-1-[({(2R)-2-amino-3-[(8S)-8-(cyclohexylmethyl)-2-phenyl-5,6-dihydroimidazo[1,2-a]pyrazin-7(8H)-yl]-3-oxopropyl}dithio)methyl]-2-[(8)-8-(cyclohexylmethyl)-2-phenyl-5,6-dihydroimidazo[1,2-a]pyrazin-7(8H)-yl]-2-oxoethylamine]
stability in the form of a powder [4]: particularly stable | in vivo toxicity data (In vivo toxicity): excellent
